Data reported in patent publication US20240091227A1, “Use Of 2-Phenyl-6-(1H-Imidazol-1-YL) Quinazoline For Treating Neurodegenerative Diseases, Preferably Alzheimer's Disease” (ROTTAPHARM BIOTECH S.R.L., priority 2019, published 2024).

Tested on: PKCε
Experiment: PKCε translocation to the plasma membrane in cultured dorsal root ganglia neurons
Type: cell-based, rat
Conditions: idazoxan pre-applied 10 minutes at 10 and 100 μM, toward 1 μM CR4056
Experimental: FIG. 1 reports the time-course (A) and washout (B) of CR4056 effect on PKCF translocation induced by bradykinin (BK 1 μM). In Panel A, open symbols represent the percentage of neurons positive for PKCF translocation following BK stimulation in absence of the drug. Filled symbols represent neurons pre-incubated with CR4056 ([…]) for different times before the stimulation for 30 seconds with BK+CR4056. The first filled symbol indicates the effect of CR4056 co-incubated for 30 seconds with BK, the second filled symbol indicates 10 seconds of pre-incubation of CR4056, and the last indicates 24 hours of pre-incubation of CR4056. […] In Panel B, BK-induced PKCF translocation was evaluated before (open symbol) and after pre-incubation of CR4056 ([…]) at different time intervals (from 10 minutes to 8 hours) (filled symbols). The first datapoint was obtained at the end of the 10 minute pre-incubation, when CR4056 was still present. The subsequent datapoints were obtained after extensive rinsing to ensure complete removal of the drug from extracellular solution (n=3).
Rat dorsal root ganglia (DRGs) were obtained from freshly isolated spines after carefully removing nerve trunks and connective tissue. Larger ganglia, chopped into 2-4 smaller pieces were then incubated for 1 hour at 37° C. in 0.125% collagenase (Worthington, Freehold, NJ) dissolved in Dulbecco's modified Eagle's medium (DMEM) containing 10% fetal bovine serum (FBS) plus 1% penicillin/streptomycin and 1% L-glutamine (Euroclone, Milan, Italy). After enzymatic digestion, ganglia were mechanically dissociated and neurons plated at a density such that neurons would cover about 30% of coverslip surface in a single layer, in petri dishes containing wells with a glass bottom coverslip (pre-coated with 10 μg/mL poly-L-lysine and 20 µg/ml laminin, Sigma-Aldrich, Milan, Italy). Cells were incubated for 2-3 days in DMEM as described above, plus 1.5 μg/ml cytosine 1-d-arabinofuranoside (ARA-C, Sigma-Aldrich) to slow down proliferation of non neuronal cells, and 100 ng/ml nerve growth factor (NGF, Sigma-Aldrich) to increase cell health and the and the expression of receptors which are linked to PKCF translocation upon stimulation. Activation of membrane receptors coupled to phospholipase C pathway leads to PKCF translocation from cytoplasm to the plasma membrane. In order to study PKCε behaviour a well established technique was employed (Vellani V, Neuroscience, 2006). […] CR4056 was pre-applied in the culture medium for 10 min or co-applied with the stimulus. After fixation, cells were permeabilized with 0.2% Triton X-100 (Sigma-Aldrich, Milan, Italy) and exposed overnight to a rabbit polyclonal antibody highly specific for PKCF. After extensive rinsing, PKCF was visualized with a secondary antibody (1:200 dilution Alexa Fluor 488 goat anti-rabbit, Thermo Fisher Scientific, Monza, Italy) applied for 2-4 hours at room temperature in the dark Cells showing PKCF translocation were detected with a confocal microscope (Leica SP2, Leica, Switzerland) by measuring fluorescence intensity along a line drawn through the cytoplasm and the membrane, thus avoiding the nucleus. Neurons in which fluorescence intensity at the plasma membrane throughout the cell was 1.5-fold or higher than the mean cytoplasmic intensity were considered positive.

SMILES: c1ccc2c(c1)OCC(C1=NCCN1)O2 (stereo not shown) [Idazoxan, idazoxan, reference compound]
- Effect of idazoxan on the block of PKCF translocation by CR4056: completely ineffective
